Results on six compounds are retold here after patent US10851071B2, “M-dihydroxybenzene derivative crystal and salt, and manufacturing method thereof” (Chia Tai Tianqing Pharmaceutical Group Co., Ltd., priority 2016, dated 2020).

A value given as a limit tells only on which side of the number the result lay.

The nature of series [1]: Dynamic vapour sorption (DVS), wet weight gain. Format: physicochemical. The conditions noted are these: 25±1° C. and 80±2% RH.
Series [2] in a line: Rough solubility test of A-type crystal and salts of the compound of formula (I). The conditions noted are these: for Approximate solubility: room temperature; for solubility: thermodynamic from solid.
Procedure: Hydrochloric acid, acetic acid, sodium acetate, sodium chloride, 5% glucose solution, water (buffer is a buffer solution of acetic acid/sodium acetate).
2 mg of a sample was weighed, and dissolved by adding a solvent (10 μL) thereto at room temperature. […] The total amount of the added solvents was up to 2 mL.
The nature of series [3]: Crystal stability under humidity, heat and grinding. It counts as physicochemical. The conditions noted are these: RT/92.5% RH 5 and 10 days; 60° C. 5 and 10 days; grinded 10/20/30 min.
Series [4] can be described thus: Tissue distribution in SD rats after tail vein injection (LC/MS/MS). It counts as in vivo. As for the experimental part:
SD rats were used as test animals, and the drug concentrations in plasma, lung and breast tissues of rats at different times after administrating the compound of formula (I) via the injection in tail vein were measured by using LC/MS/MS method. The tissue distribution of the compound of the present invention in rats was investigated, and pharmacokinetic characteristics thereof were evaluated.
Appropriate amounts of samples were weighed, and Luminespib, Ganetespib and the compound of formula (I) of the present invention were respectively formulated into a clear solution with a concentration of 2.5 mg/mL for intravenous injection, wherein the solvent was consisted of 10% (v/v) of DMSO, 14% (v/v) of polyoxyethylene hydrogenated castor oil 40, and 76% (v/v) of 5% aqueous glucose solution.
9 SD male rats were divided into three groups, three rats per group. The rats were administered intravenously through tail vein at a dose of 1 mg/kg after being normally fed.
Samples of blood, lung and breast tissues were collected from the rats in three groups at 0.5, 6, and 24 hours after administration, respectively. The blood sample was separated by centrifugation at 4° C., 3000 rpm/min for 15 min within half an hour after collection, so as to obtain plasma sample. The resulting plasma sample was deposited in polypropylene tubes and stored at −80° C. for LC/MS/MS analysis. After blood sample was collected, the animals were sacrificed with CO2, and the tissue samples were collected. Each tissue sample was washed twice with cold deionized water and adhered onto filter paper. Each tissue sample was then homogenized several times in MeOH/15 mM PBS (1:2) (5 mL MeOH/15 mM PBS (1:2) per gram of tissue, with dilution coefficient of 6), to ensure the formation of homogeneous phase. The whole process was carried out at a freezing point temperature. The homogenized samples were quickly frozen by using dry ice and stored at −80° C. for bioassay.
The contents of the test compounds in the plasma, lung and breast tissues of the rats after the administration by injection were measured with LC/MS/MS method.

The test system of series [5] is BT-474 tumor cells. Description: In vivo pharmacodynamic evaluation in BT-474 breast cancer transplanted tumors in nude mice. As for the experimental part: BT-474 tumor cells were subcutaneously inoculated into the right axillary fossa of nude mice at 5×10^6/mouse to form transplanted tumors. When the volume thereof reached 100-200 mm^3, the animals were randomly grouped based on tumor volumes: 6 mice in negative control group; 6 mice in positive control group; and 6 mice in each test group. The mice in the treatment groups were intravenously injected with different concentrations of positive drug Ganetespib (20 mg/kg) and the compound of formula (I) (10 mg/kg and 20 mg/kg) three times a week, and the mice in the negative control group were administrated with equal amount of vehicles at the same time. The length (A) and width (B) of the tumor were measured twice a week by using a vernier caliper, and the tumor volume V=A×B^2/2 was thereby calculated. The calculation of relative tumor volume (RTV) follows: RTV=Vt/V0, wherein Vt was the tumor volume at the end of administration, and V0 was the tumor volume measured before administration to each cage. The pharmacodynamic evaluation index of antitumor activity was the relative tumor proliferation rate T/C (%), and the calculation formula was: TIC (%)=TRTV/CRTV×100%, wherein TRTV: RTV of the treatment group; CRTV: RTV of the negative control group. Therapeutic efficacy evaluation criteria: T/C %>60% was ineffective; T/C %≤60% with P<0.05 after being statistically processed was effective. […]

The mark [6] stands for this setting: 0.9% NaCl solution, saline or isotonic.
Setting [7] is: 5% glucose solution, saline or isotonic.
The mark [8] stands for this setting: acetic acid/sodium acetate buffer pH 3.5, pH 3.5, aqueous buffer.
[9] abbreviates: acetic acid/sodium acetate buffer pH 4.5, pH 4.5, aqueous buffer.
Setting [10] is: acetic acid/sodium acetate buffer pH 5.5, pH 5.5, aqueous buffer.
Setting [11] is: acetic acid/sodium acetate buffer pH 6.8, pH 6.8, aqueous buffer.
[12] abbreviates: acetic acid/sodium acetate buffer pH 7.5, pH 7.5, aqueous buffer.
The mark [13] stands for this setting: rats, injection dose of 1 mg/kg, same dose.

As to maleate, the “wet weight gain ΔW %” value in series [1] is “about 0.379%”. Moreover, the Approximate solubility is less than 2000 µg/mL in series [2] (0.9% NaCl solution); 2100 to 2300 µg/mL in series [2] (5% glucose solution); 6500 to 7500 µg/mL in series [2] (pH 3.5 buffer (acetic acid/sodium acetate)); 3400 to 3900 µg/mL in series [2] (pH 4.5 buffer); less than 2000 µg/mL in series [2] (pH 5.5 buffer); less than 2000 µg/mL in series [2] (pH 6.8 buffer). The values for the Approximate solubility in series [2] (pH 7.5 buffer) and in series [2] (water) were less than 2000 µg/mL and 2200 to 2600 µg/mL, respectively.
One may read the solubility as how much of the substance goes into solution per volume. With `CCNC(=O)c1onc(-c2cc(C(C)C)c(O)cc2O)c1-c1ccc2c(c1)CCNC2.Cl` [hydrochloride, 3-(2,4-dihydroxy-5-isopropylphenyl)-N-ethyl-4-(1,2,3,4tetrahydroisoquinolin-6-yl)isoxazole-5-carboxamide hydrochloride], the solubility was less than 2000 µg/mL in series [2] (setting [6]); 4600 to 5500 µg/mL in series [2] (setting [7]); 9500 to 14200 µg/mL in series [2] (setting [8]); 5800 to 7300 µg/mL in series [2] (setting [9]); less than 2000 µg/mL in series [2] (setting [10]); less than 2000 µg/mL in series [2] (setting [11]). The results for the solubility in series [2] (setting [12]) and in series [2] (water) were less than 2000 µg/mL and 5300 to 6300 µg/mL, respectively. The “solubility compared with A-type crystal (in words)” value in series [2] (conclusion from Table 5) is given as “significantly higher solubilities than that of the A-type crystal”.
Turning to `O=S(=O)(O)O` [sulfate], the “wet weight gain ΔW %” value in series [1] was “about 0.081%”.
Consider `CCNC(=O)c1onc(-c2cc(C(C)C)c(O)cc2O)c1-c1ccc2c(c1)CCNC2` [A-type crystal], for which, in series [1], the “wet weight gain ΔW %” value was “about 0.45%”. In series [3], the crystal transformation result is “no crystal transformation”. For the same compound, the solubility in series [2] (0.01N HCl, simulated gastric fluid) is 800 to 1000 µg/mL; in series [2] (0.1N HCl, simulated gastric fluid) it was less than 1000 µg/mL; in series [2] (setting [6]) it was less than 1000 µg/mL; in series [2] (setting [7]), less than 1000 µg/mL; in series [2] (setting [8]), 80000 to 100000 µg/mL; in series [2] (setting [9]) it was 30000 to 50000 µg/mL. Also, the solubility in series [2] (setting [10]) was less than 1000 µg/mL; in series [2] (acetic acid/sodium acetate buffer pH 6.5, pH 6.5, aqueous buffer) it was less than 1000 µg/mL; in series [2] (setting [11]), less than 1000 µg/mL; in series [2] (setting [12]), less than 1000 µg/mL; in series [2] (water) it was less than 1000 µg/mL.
Turning to `CCNC(=O)c1onc(-c2cc(C(C)C)c(O)cc2O)c1-c1ccc2c(c1)CCNC2` [Compound of formula (I), 3(2,4dihydroxy-5-isopropylphenyl)-N-ethyl-4(1,2,3,4-tetrahydroisoquinolin-6-yl)isoxazole-5-carboxamide], in series [4] (SD rats, 1 mg/kg iv), the Breast tissue exposure came out at 7.226 µM·h, the Lung exposure worked out at 30.933 µM·h and the Plasma exposure turned out to be 0.415 µM·h. In addition, in series [4] (setting [13]), the “concentrations in lung and breast tissues compared with Luminespib and Ganetespib (in words)” value is given as “significantly higher”; the “tissue exposures compared with Luminespib and Ganetespib (in words)” value is recorded as “significantly greater”. Also, the “TGI (%)” value in series [5] (10 mpk iv three times a week, day 35 (administration stopped day 18)) was 120%. For the same compound, the “antitumor effect compared with Ganetespib (in words)” value in series [5] (10 mpk versus 20 mpk of Ganetespib, BT-474 transplanted mouse model) is listed as “significantly superior antitumor effect”. Moreover, the “solubility depending on buffer pH (in words)” value in series [2] (conclusion from Table 5) is “higher solubility in the buffer of pH 3.5-4.5”.
The compound `CCNC(=O)c1noc(-c2cc(C(C)C)c(O)cc2O)c1-c1ccc(CN2CCOCC2)cc1` [Luminespib, 5[2,4dihydroxy-5-isopropylphenyl]-N-ethyl-4[4-(4-morpholinylmethyl)phenyl]-3-isoxazolecarboxamide, reference compound] showed a Lung exposure in series [4] (SD rats, 1 mg/kg iv) of 5.284 µM·h.
